From PubChem BioAssay AID504755 (Southern Research Specialized Biocontainment Screening …, 2011)
Activity calls are given as the source filed them.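 How the source made its calls: active means viability under 80% of untreated control mean at any tested dose, taken as cytotoxic; inactive means the rest.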

The compounds below were run on PC3 viability, CellTiter-Glo luminescence, 72 h (assay: viability loss in PC3 cells – cell-based, selected hits, cytotoxicity control for HSV oncolysis enhancer project, dose response (AID 504755)).

SMILES | CC50
COc1ccc(C(=O)OCCCN2CCOCC2)cc1 | > 100 µM (inactive)
COc1cc(C(=O)OCCCN2CCCN(C(=O)OC(C)(C)C)CC2)cc(OC)c1OC | > 100 µM (inactive)
COc1cc(C(=O)OCCCN2CCN(CCCOC(=O)c3cc(OC)c(OC)c(OC)c3)CC2)cc(OC)c1OC | > 100 µM (inactive)
COc1cc(OC)cc(C(=O)OCCCN2CCN(CCCOC(=O)c3cc(OC)cc(OC)c3)CC2)c1 | 102 µM
CN1CCN(CCCOC(=O)c2ccccc2)CC1 | > 100 µM (inactive)
COc1cc(-c2cn(CCCN3CCCN(CCCn4cc(-c5cc(OC)c(OC)c(OC)c5)nn4)CC3)nn2)cc(OC)c1OC | > 100 µM (inactive)
CNCCN(C)CCCOC(=O)c1ccc(F)cc1 | > 100 µM (inactive)
O=C(CN1CCCN(CC(=O)CN2C(=O)c3ccccc3C2=O)CC1)CN1C(=O)c2ccccc2C1=O | > 100 µM (inactive)
COc1cc(OC)cc(C(=O)OCCCN2CCN(C)CC2)c1 | > 100 µM (inactive)
O=C(OCCCN1CCCN(CCCOC(=O)c2ccc(F)cc2)CC1)c1ccc(F)cc1 | 73.6 µM
COc1cc(NC(=O)N2CCCN(C(=O)Nc3cc(OC)c(OC)c(OC)c3)CC2)cc(OC)c1OC | > 100 µM (inactive)
COc1cc(CN2CCCN(Cc3cc(OC)c(OC)c(OC)c3)CC2)cc(OC)c1OC | > 100 µM (inactive)
O=C(CCN1CCCN(CCC(=O)Nc2ccccc2)CC1)Nc1ccccc1 | > 100 µM (inactive)
CNCCN(C)CCCOC(=O)c1ccc(OC)cc1 | > 100 µM (inactive)
COc1cc(C(=O)OCCN2CCCN(CCOC(=O)c3cc(OC)c(OC)c(OC)c3)CC2)cc(OC)c1OC | > 100 µM (inactive)
CN1CCCN(CCCOC(=O)c2ccccc2)CC1 | > 100 µM (inactive)
COc1ccc(C(=O)OCCN2CCCN(CCOC(=O)c3ccc(OC)cc3)CC2)cc1 | > 100 µM (inactive)
COc1ccc(C(=O)NCCCN2CCCN(C)CC2)cc1 | > 100 µM (inactive)
COc1ccc(C(=O)OCCCN2CCCN(C)CC2)cc1 | > 100 µM (inactive)
COc1cc(C(=O)OCCN2CCCC2)cc(OC)c1OC | > 100 µM (inactive)
COc1ccc(C(=O)OCCN2CCN(C)CC2)cc1 | > 100 µM (inactive)
COc1cc(C(=O)OCCCN2CCCN(C(C)=O)CC2)cc(OC)c1OC | > 100 µM (inactive)
COc1cc(NC(=O)Nc2cc(OC)c(OC)c(OC)c2)cc(OC)c1OC | > 100 µM (inactive)

SMILES | CC50
COc1cc(OC)cc(C(=O)OCCCNCCNCCCOC(=O)c2cc(OC)cc(OC)c2)c1 | 31.7 µM
CN1CCN(CCCOC(=O)c2ccc(F)cc2)CC1 | > 100 µM (inactive)
COc1cc(OC)cc(C(=O)OCCN2CCCN(C)CC2)c1 | > 100 µM (inactive)
COc1cc(OC)cc(C(=O)OCCCN2CCCN(C)CC2)c1 | > 100 µM (inactive)
COc1cc(C(=O)OCCCN2CCCN(C(=O)c3ccccc3)CC2)cc(OC)c1OC | > 100 µM (inactive)
O=C(OCCCN1CCN(CCCOC(=O)c2ccccc2)CC1)c1ccccc1 | > 100 µM (inactive)
COc1ccc(C(=O)OCCCNCCNCCCOC(=O)c2ccc(OC)cc2)cc1 | 24.1 µM
COc1cc(C(=O)OCCCN2CCN(C)CC2)cc(OC)c1OC | > 100 µM (inactive)
COc1cc(COCCCN2CCCN(CCCOCc3cc(OC)c(OC)c(OC)c3)CC2)cc(OC)c1OC | > 100 µM (inactive)
COc1cc(C(=O)OCCN2CCN(CCOC(=O)c3cc(OC)c(OC)c(OC)c3)CC2)cc(OC)c1OC | > 100 µM (inactive)
COc1cc(C(=O)OCCN2CCCN(Cc3ccccc3)CC2)cc(OC)c1OC | > 100 µM (inactive)
CNCCN(C)CCOC(=O)c1cc(OC)cc(OC)c1 | > 100 µM (inactive)
CNCCN(C)CCOC(=O)c1cc(OC)c(OC)c(OC)c1 | > 100 µM (inactive)
COc1cc(C(=O)OCCN2CCOCC2)cc(OC)c1OC | > 100 µM (inactive)
COc1cc(C(=O)OCCCN2CCCC2)cc(OC)c1OC | > 100 µM (inactive)
COc1cc(C(=O)OCCCN2CCCN(CCCOC(=O)c3cc(OC)c(OC)c(OC)c3)CC2)cc(OC)c1OC | > 100 µM (inactive)
COc1ccc(C(=O)OCCCN2CCCC2)cc1 | > 100 µM (inactive)
COc1cc(OC)cc(C(=O)OCCN2CCCC2)c1 | > 100 µM (inactive)
CN1CCCN(CCCOC(=O)c2ccc(F)cc2)CC1 | > 100 µM (inactive)
COc1cc(C(=O)OCCCN(C)CCN(C)CCCOC(=O)c2cc(OC)c(OC)c(OC)c2)cc(OC)c1OC | > 100 µM (inactive)
COc1cc(C(=O)NCCCN2CCCN(CCCNC(=O)c3cc(OC)c(OC)c(OC)c3)CC2)cc(OC)c1OC | > 100 µM (inactive)
COc1cc(C(=O)OCCN2CCN(C)CC2)cc(OC)c1OC | > 100 µM (inactive)
COc1ccc(C(=O)OCCCN2CCN(C)CC2)cc1 | > 100 µM (inactive)

SMILES | CC50
COc1cc(C(=O)OCCCN2CCCN(C)CC2)cc(OC)c1OC | > 100 µM (inactive)
COc1ccc(C(=O)OCCN2CCCN(Cc3ccccc3)CC2)cc1 | > 100 µM (inactive)
COc1cc(C(=O)OCCCN2CCCNCC2)cc(OC)c1OC | > 100 µM (inactive)
COc1ccc(N2C(=O)CC(N3CCCN(C4CC(=O)N(c5ccc(OC)cc5)C4=O)CC3)C2=O)cc1 (stereo not drawn) | > 100 µM (inactive)
O=C(/C=C/c1ccc2c(c1)OCO2)N1CCCN(C(=O)/C=C/c2ccc3c(c2)OCO3)CC1 | > 100 µM (inactive)
COc1ccc(C(=O)OCCN2CCCN(C)CC2)cc1 | > 100 µM (inactive)
O=C(OCCCN1CCOCC1)c1ccc(F)cc1 | > 100 µM (inactive)
O=C(OCCCN1CCN(CCCOC(=O)c2ccc(F)cc2)CC1)c1ccc(F)cc1 | > 100 µM (inactive)
COc1cc(OC)cc(C(=O)OCCCN2CCCN(Cc3ccccc3)CC2)c1 | > 100 µM (inactive)
COc1ccc(C(=O)OCCN2CCN(CCOC(=O)c3ccc(OC)cc3)CC2)cc1 | > 100 µM (inactive)
COc1cc(OC)cc(C(=O)OCCN2CCCN(CCOC(=O)c3cc(OC)cc(OC)c3)CC2)c1 | > 100 µM (inactive)
COc1cc(C(=O)OCCCN2CCOCC2)cc(OC)c1OC | > 100 µM (inactive)
COc1cc(OC)cc(C(=O)OCCN2CCN(CCOC(=O)c3cc(OC)cc(OC)c3)CC2)c1 | > 100 µM (inactive)
COc1cc(OC)cc(C(=O)OCCN2CCN(C)CC2)c1 | > 100 µM (inactive)
COc1ccc(C(=O)OCCCN2CCN(CCCOC(=O)c3ccc(OC)cc3)CC2)cc1 | > 100 µM (inactive)
COc1cc(C(=O)N2CCCN(C(=O)c3cc(OC)c(OC)c(OC)c3)CC2)cc(OC)c1OC | > 100 µM (inactive)
COc1cc(OC)cc(C(=O)OCCN2CCOCC2)c1 | > 100 µM (inactive)
COc1cc(C(=O)OCCN2CCCN(C)CC2)cc(OC)c1OC | > 100 µM (inactive)
NCCCN1CCCN(CCCN)CC1 | > 100 µM (inactive)
CC(=O)NCCCN1CCCN(CCCNC(C)=O)CC1 | > 100 µM (inactive)
O=C(NCCCN1CCN(CCCNC(=O)c2ccc3c(c2)OCO3)CC1)c1ccc2c(c1)OCO2 | > 100 µM (inactive)
COc1cccc(C(=O)NCCCN2CCN(CCCNC(=O)c3cccc(OC)c3)CC2)c1 | > 100 µM (inactive)
